The record followed here is PubChem BioAssay (NCI).

Test systems include MDA-MB-435; NCI-H460 lung; NCI/ADR-RES ovarian; OVCAR-4 ovarian; PC-3 prostate; SF-268 CNS; SF-295 CNS; SK-MEL-5 melanoma; SNB-19 CNS; SNB-75 CNS.
What all share (assay): inhibition of tumour cell growth, NCI panel, 48 h

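Each compound was tested at five concentrations against cells in 96-well plates for 48 hours. GI50 = concentration required for 50% inhibition of growth. Definition used: TGI = concentration required for complete inhibition of growth.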

Turning to `N#Cc1c(-c2nc3ccccc3s2)c(=O)oc2cc(O)ccc12`, the TGI with MDA-MB-435, in the assay on NCI-H460 lung, in the assay with NCI/ADR-RES ovarian, in the assay with OVCAR-4 ovarian, in the assay with PC-3 prostate and with SF-268 CNS was > 100 µM in each case. In addition, the TGI with SF-295 CNS was > 100 µM; in the assay on SK-MEL-5 melanoma, 69.8 µM; in the assay on SNB-19 CNS, > 100 µM; with SNB-75 CNS, > 100 µM.

As to `N=C1C(c2nc(-c3ccc(Br)cc3)cs2)=C(O)CN1Cc1cccnc1`, the GI50 is 15.5 µM in the assay on MDA-MB-435; 12.3 µM in the assay on NCI-H460 lung; 16.3 µM in the assay with NCI/ADR-RES ovarian; 25.1 µM in the assay with OVCAR-4 ovarian; 44.3 µM with PC-3 prostate; 31.6 µM in the assay with SF-268 CNS. In addition, the GI50 in the assay with SF-295 CNS is 16.6 µM; in the assay with SK-MEL-5 melanoma, 4.35 µM; with SNB-19 CNS, 40.1 µM. In addition, the TGI with MDA-MB-435, in the assay with NCI-H460 lung, with NCI/ADR-RES ovarian, with OVCAR-4 ovarian, with PC-3 prostate and in the assay on SF-268 CNS was > 100 µM throughout. Further, the TGI in the assay with SF-295 CNS was 81.3 µM; in the assay with SK-MEL-5 melanoma, 32.5 µM; in the assay with SNB-19 CNS it was > 100 µM; in the assay on SNB-75 CNS, 22.9 µM.

Consider `C=C1C(=O)O[C@H]2[C@H]1CC/C(COC(=O)c1cc3cc(F)ccc3[nH]1)=C\CC[C@@]1(C)O[C@@H]21`, for which the GI50 in the assay on MDA-MB-435 is 1.5 µM; in the assay with NCI-H460 lung, 3.04 µM; in the assay with NCI/ADR-RES ovarian it was 1.98 µM; with OVCAR-4 ovarian, 1.67 µM; in the assay with PC-3 prostate, 1.7 µM; in the assay on SF-268 CNS, 1.62 µM. The GI50 with SF-295 CNS was 7.1 µM; in the assay on SK-MEL-5 melanoma, 1.85 µM; with SNB-19 CNS, 5.04 µM; with SNB-75 CNS, 11.1 µM. Further, the TGI in the assay on MDA-MB-435 was 2.96 µM; with NCI-H460 lung it was 11.5 µM; in the assay with NCI/ADR-RES ovarian, 5.39 µM; in the assay with OVCAR-4 ovarian, 3.92 µM; in the assay with PC-3 prostate it was 3.44 µM; in the assay with SF-268 CNS, 3.3 µM. For the same molecule, the TGI in the assay on SF-295 CNS was 21.6 µM; in the assay with SK-MEL-5 melanoma, 3.84 µM; with SNB-19 CNS it was 21 µM; in the assay on SNB-75 CNS, 23.9 µM.

Regarding `O=C(Oc1ccc(Cl)cc1Cl)c1ccccc1Nc1ccnc(C(F)(F)F)c1`, the GI50 is 2.91 µM in the assay with MDA-MB-435; 4.26 µM in the assay on NCI-H460 lung; 3.66 µM in the assay with NCI/ADR-RES ovarian; 8.24 µM with PC-3 prostate; 3.11 µM with SF-268 CNS; 15.6 µM in the assay on SF-295 CNS. The GI50 with SK-MEL-5 melanoma is 2.85 µM. Further, the TGI came out at 8.1 µM in the assay on MDA-MB-435; 33.8 µM in the assay with NCI-H460 lung; 11.7 µM in the assay on NCI/ADR-RES ovarian; 25.5 µM in the assay on PC-3 prostate; 13.6 µM with SF-268 CNS; 37.2 µM in the assay on SF-295 CNS. In the assay on SK-MEL-5 melanoma, this molecule showed a TGI of 10.5 µM.

As to `Cc1ncc(CN=Cc2ccc(Cl)cc2)c(N)n1`, the TGI in the assay on MDA-MB-435, in the assay on NCI-H460 lung, in the assay on NCI/ADR-RES ovarian, with OVCAR-4 ovarian, in the assay with PC-3 prostate and in the assay on SF-268 CNS was > 100 µM throughout. Moreover, the TGI in the assay on SF-295 CNS, with SK-MEL-5 melanoma, in the assay with SNB-19 CNS and in the assay on SNB-75 CNS was > 100 µM in each case.

With `ClCc1cccc(Cn2cnc3c(Cl)ncnc32)c1`, the GI50 in the assay on MDA-MB-435 is 1.69 µM; with NCI-H460 lung, 11.7 µM; in the assay on NCI/ADR-RES ovarian, 2.43 µM; in the assay on OVCAR-4 ovarian, 2.35 µM; in the assay on PC-3 prostate it was 4.18 µM; in the assay with SF-268 CNS, 3.53 µM. For the same molecule, the GI50 with SF-295 CNS was 3.25 µM; with SK-MEL-5 melanoma, 2.3 µM; in the assay with SNB-19 CNS it was 2.66 µM; with SNB-75 CNS, 2.09 µM. Moreover, the TGI with MDA-MB-435 is 3.29 µM; in the assay on NCI-H460 lung, 36 µM; with NCI/ADR-RES ovarian, 7.62 µM; in the assay on OVCAR-4 ovarian it was 5.69 µM; in the assay on PC-3 prostate, 18.3 µM; in the assay on SF-268 CNS, 15.3 µM. Also, the TGI turned out to be 8.68 µM with SF-295 CNS, 6.38 µM in the assay on SK-MEL-5 melanoma, 12.5 µM in the assay on SNB-19 CNS and 4.56 µM in the assay on SNB-75 CNS.

Turning to `Cc1ccc(CNc2c3ccccc3nc3ccccc23)cc1`, the GI50 in the assay with MDA-MB-435 was 1.63 µM; in the assay with NCI-H460 lung, 2.02 µM; with NCI/ADR-RES ovarian, 1.74 µM; in the assay on OVCAR-4 ovarian, 1.54 µM; with PC-3 prostate it was 1.87 µM; in the assay with SF-268 CNS it was 2.98 µM. Moreover, the GI50 in the assay on SF-295 CNS was 2.53 µM; in the assay with SK-MEL-5 melanoma, 1.66 µM; in the assay with SNB-19 CNS, 3.33 µM; in the assay on SNB-75 CNS, 0.402 µM. For the same molecule, the TGI with MDA-MB-435 came out at 3.1 µM; with NCI-H460 lung, 5.26 µM; in the assay with NCI/ADR-RES ovarian, 5.35 µM; in the assay on OVCAR-4 ovarian, 5.36 µM; with PC-3 prostate, 7.11 µM; with SF-268 CNS, 11.3 µM. The TGI with SF-295 CNS came out at 8.87 µM; in the assay on SK-MEL-5 melanoma, 3.06 µM; with SNB-19 CNS, 14.2 µM; in the assay with SNB-75 CNS, 6.8 µM.

As for `COc1cc(-c2nn(-c3ccc(NC(=O)c4ccc(Cl)c(Cl)c4)cc3)cc2-c2ccncc2)ccc1Cl`, the GI50 in the assay on MDA-MB-435 was 7.14 µM; in the assay with NCI-H460 lung it was 4.17 µM; with NCI/ADR-RES ovarian, 7.16 µM; with OVCAR-4 ovarian, 23.4 µM; in the assay with PC-3 prostate, 6.28 µM; in the assay on SF-268 CNS, > 100 µM. For the same molecule, the GI50 was 1.94 µM in the assay on SF-295 CNS, 26.7 µM in the assay on SNB-19 CNS and 7.52 µM with SNB-75 CNS. Further, the TGI in the assay with MDA-MB-435, in the assay with NCI-H460 lung, with NCI/ADR-RES ovarian, in the assay with OVCAR-4 ovarian, in the assay on PC-3 prostate and in the assay with SF-268 CNS was > 100 µM in each case. The TGI in the assay with SF-295 CNS is 4.57 µM; in the assay on SNB-19 CNS it was > 100 µM; in the assay on SNB-75 CNS, > 100 µM.
